ChEMBL document CHEMBL1146841, “Discovery of thiochroman derivatives bearing a carboxy-containing side chain as orally active pure antiestrogens” (Bioorg Med Chem Lett, 2006)

Experiments:
[1] = target: T1, Estrogen receptor (Homo sapiens) (UniProt P03372); experiment: Displacement of [3H]estradiol from human recombinant ERalpha relative to estradiol
T1 sequence (whole entry): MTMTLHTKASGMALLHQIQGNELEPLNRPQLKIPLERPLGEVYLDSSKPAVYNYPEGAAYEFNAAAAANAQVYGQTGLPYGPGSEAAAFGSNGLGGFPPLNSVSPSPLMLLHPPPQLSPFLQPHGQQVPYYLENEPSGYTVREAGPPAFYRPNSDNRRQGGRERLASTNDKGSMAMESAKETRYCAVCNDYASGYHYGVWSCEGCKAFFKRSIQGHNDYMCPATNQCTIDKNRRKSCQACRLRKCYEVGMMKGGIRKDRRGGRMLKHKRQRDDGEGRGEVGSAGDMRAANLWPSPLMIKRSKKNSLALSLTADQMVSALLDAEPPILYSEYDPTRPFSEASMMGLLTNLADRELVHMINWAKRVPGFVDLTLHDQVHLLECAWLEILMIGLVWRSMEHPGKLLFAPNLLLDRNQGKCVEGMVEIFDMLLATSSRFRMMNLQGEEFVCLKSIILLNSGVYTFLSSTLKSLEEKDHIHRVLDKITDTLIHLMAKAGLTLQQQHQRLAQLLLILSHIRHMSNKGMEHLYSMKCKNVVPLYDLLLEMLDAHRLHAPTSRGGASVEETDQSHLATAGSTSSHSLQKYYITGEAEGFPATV

[2] = tested on: Mus musculus; experiment: Antagonist activity assessed as inhibition of estrogen-stimulated uterine weight gain in ovariectomized mouse at 30 mg/kg, po; type: functional
[3] = tested on: Mus musculus; experiment: Antagonist activity assessed as inhibition of estrogen-stimulated uterine weight gain in ovariectomized mouse at 10 mg/kg, po; type: functional
[4] = tested on: Mus musculus; experiment: Antagonist activity assessed as inhibition of estrogen-stimulated uterine weight gain in ovariectomized mouse at 3 mg/kg, po; type: functional
[5] = tested on: Mus musculus; experiment: Antagonist activity assessed as inhibition of estrogen-stimulated uterine weight gain in ovariectomized mouse at 10 mg/kg, sc; type: functional; settings: route subcutaneous
[6] = tested on: Mus musculus; experiment: Agonist activity assessed as increase in uterine weight in ovariectomized mouse at 10 mg/kg, sc; type: functional; settings: route subcutaneous
[7] = tested on: Mus musculus; experiment: Antagonist activity assessed as inhibition of estrogen-stimulated uterine weight gain in ovariectomized mouse at 50 mg/kg, po; type: functional
[8] = AUC in duodenally dosed Sprague-Dawley rat portal vein at 10 mg/kg; type: ADME, organism-based; set-up: dose 10 mg/kg, route intraduodenal; settings: portal vein plasma
[9] = AUC in duodenally dosed Sprague-Dawley rat peripheral blood at 10 mg/kg; type: ADME, organism-based; set-up: dose 10 mg/kg, route intraduodenal
[10] = tested on: Rattus norvegicus; experiment: AUC in Sprague-Dawley rat at 10 mg/kg, iv; type: ADME, organism-based, Plasma; set-up: dose 10 mg/kg, route intravenous; settings: in vivo
[11] = tested on: Rattus norvegicus; experiment: (§1) AUC in Sprague-Dawley rat at 20 mg/kg, po; type: ADME, organism-based, Plasma; set-up: dose 20 mg/kg, route oral; settings: in vivo
[12] = Bioavailability in Sprague-Dawley rat; type: ADME, organism-based; settings: in vivo
[13] = as §1; type: ADME, organism-based, Plasma; set-up: dose 20 mg/kg, route oral; settings: Sprague-Dawley, plasma

Question: Which RBA [1] does the source give for C[C@]1(c2ccc(O)cc2)CSc2cc(O)ccc2[C@H]1CCCCCCCCCC(CCCCC(F)(F)C(F)(F)F)C(=O)O (some centres undefined) here?
Answer: The RBA was 0.2%.

Question: What about the inhibition in vivo at 30 mg/kg [2] of the same compound?
Answer: The inhibition in vivo at 30 mg/kg was 96%.

Question: What about the inhibition in vivo at 10 mg/kg [3] of the same compound?
Answer: Its inhibition in vivo at 10 mg/kg is 79%.

Question: What about the inhibition in vivo at 3 mg/kg [4] of the same compound?
Answer: The inhibition in vivo at 3 mg/kg was 53%.

Question: For C[C@]1(c2ccc(O)cc2)COc2cc(O)ccc2[C@H]1CCCCCCCCCNC(=O)NCCCC(F)(F)C(F)(F)F, which RBA [1] is on record?
Answer: The RBA was 57%.

Question: And the inhibition in vivo at 10 mg/kg [5]?
Answer: The inhibition in vivo at 10 mg/kg was 77%.

Question: What about the Activity [6] of the same compound?
Answer: The Activity was 10%.

Question: And the inhibition in vivo at 10 mg/kg [3]?
Answer: The inhibition in vivo at 10 mg/kg was 1%.

Question: What does the source list for C[C@]12CC[C@@H]3c4ccc(O)cc4C[C@@H](CCCCCCCCC[S+]([O-])CCCC(F)(F)C(F)(F)F)[C@H]3[C@@H]1CC[C@@H]2O (some centres undefined) [FULVESTRANT]?
Answer: RBA [1]: 138%; inhibition in vivo at 10 mg/kg [5]: 95%; inhibition in vivo at 50 mg/kg [7]: 86%; inhibition in vivo at 30 mg/kg [2]: 72%; Activity [6]: -1%; inhibition in vivo at 10 mg/kg [3]: 54%; AUC [8]: 56 ng·h/mL; AUC [9]: 7 ng·h/mL; AUC [10]: 5300 ng·h/mL; AUC [11]: 1670 ng·h/mL; bioavailability [12]: 16%; inhibition in vivo at 3 mg/kg [4]: 29%

Question: With C[C@]1(c2ccc(O)cc2)CSc2cc(O)ccc2[C@H]1CCCCCCCCC(CCCC(F)(F)C(F)(F)F)C(=O)O (some centres undefined) as the compound, how does the RBA [1] read?
Answer: Its RBA is 0.8%.

Question: What about the inhibition in vivo at 10 mg/kg [5] of the same compound?
Answer: Its inhibition in vivo at 10 mg/kg is 95%.

Question: What about the inhibition in vivo at 30 mg/kg [2] of the same compound?
Answer: The inhibition in vivo at 30 mg/kg was 94%.

Question: What about the Activity [6] of the same compound?
Answer: Its Activity is 1%.

Question: And the inhibition in vivo at 10 mg/kg [3]?
Answer: Its inhibition in vivo at 10 mg/kg is 77%.

Question: And the AUC [8]?
Answer: Its AUC is 2510 ng·h/mL.

Question: What about the AUC [9] of the same compound?
Answer: The AUC was 2040 ng·h/mL.

Question: And the AUC [10]?
Answer: Its AUC is 228000 ng·h/mL.

Question: And the AUC [11]?
Answer: Its AUC is 209000 ng·h/mL.

Question: And the bioavailability [12]?
Answer: Its bioavailability is 46%.

Question: And the inhibition in vivo at 3 mg/kg [4]?
Answer: The inhibition in vivo at 3 mg/kg was 41%.

Question: Which results are given for C[C@]1(c2ccc(O)cc2)CSc2cc(O)ccc2[C@H]1CCCCCCCCCNC(=O)NS(=O)(=O)CCCC(F)(F)C(F)(F)F?
Answer: RBA [1]: 1.2%; inhibition in vivo at 10 mg/kg [5]: 33%; Activity [6]: 8%

Question: For C[C@]1(c2ccc(O)cc2)CSc2cc(O)ccc2[C@H]1CCCCCCCCC(CCC(F)(F)C(F)(F)C(F)(F)C(F)(F)F)C(=O)O (some centres undefined), which RBA [1] is on record?
Answer: Its RBA is 0.6%.

Question: And the inhibition in vivo at 30 mg/kg [2]?
Answer: The inhibition in vivo at 30 mg/kg was 96%.

Question: What about the inhibition in vivo at 10 mg/kg [3] of the same compound?
Answer: The inhibition in vivo at 10 mg/kg was 93%.

Question: What about the inhibition in vivo at 3 mg/kg [4] of the same compound?
Answer: Its inhibition in vivo at 3 mg/kg is 63%.

Question: Which results are given for C[C@]1(c2ccc(O)cc2)CSc2cc(O)ccc2[C@H]1CCCCCCCCC(CCCC(F)(F)C(F)(F)C(F)(F)C(F)(F)F)C(=O)O (some centres undefined)?
Answer: RBA [1]: 0.3%; inhibition in vivo at 30 mg/kg [2]: 99%; inhibition in vivo at 10 mg/kg [3]: 93%; inhibition in vivo at 3 mg/kg [4]: 61%

Question: Which RBA [1] does the source give for C[C@]1(c2ccc(O)cc2)CSc2cc(O)ccc2[C@H]1CCCCCCCCCC(CCCC(F)(F)C(F)(F)C(F)(F)C(F)(F)F)C(=O)O (some centres undefined) here?
Answer: The RBA was 0.4%.

Question: What about the inhibition in vivo at 30 mg/kg [2] of the same compound?
Answer: Its inhibition in vivo at 30 mg/kg is 100%.

Question: What about the inhibition in vivo at 10 mg/kg [3] of the same compound?
Answer: The inhibition in vivo at 10 mg/kg was 86%.

Question: And the inhibition in vivo at 3 mg/kg [4]?
Answer: The inhibition in vivo at 3 mg/kg was 55%.

Question: What does the source list for C[C@]1(c2ccc(O)cc2)CSc2cc(O)ccc2[C@H]1CCCCCCCC(CCCC(F)(F)C(F)(F)F)C(=O)O (some centres undefined)?
Answer: RBA [1]: 0.5%; inhibition in vivo at 10 mg/kg [3]: 20%

Question: Which results are given for C[C@]1(c2ccc(O)cc2)CSc2cc(O)ccc2[C@H]1CCCCCCCCC(CCCCCC(F)(F)C(F)(F)F)C(=O)O (some centres undefined)?
Answer: RBA [1]: 0.8%; inhibition in vivo at 30 mg/kg [2]: 94%; inhibition in vivo at 10 mg/kg [3]: 86%; inhibition in vivo at 3 mg/kg [4]: 52%

Question: What does the source list for C[C@]1(c2ccc(O)cc2)CSc2cc(O)ccc2[C@H]1CCCCCCCCC[S+]([O-])CCCC(F)(F)C(F)(F)F (some centres undefined)?
Answer: RBA [1]: 200%; inhibition in vivo at 10 mg/kg [5]: 101%; inhibition in vivo at 50 mg/kg [7]: 94%; Activity [6]: -2%; inhibition in vivo at 10 mg/kg [3]: 51%; AUC [8]: 88 ng·h/mL; AUC [9]: 13 ng·h/mL; AUC [10]: 8220 ng·h/mL; AUC [13]: 3590 ng·h/mL; bioavailability [12]: 22%

Question: Which RBA [1] does the source give for COC(=O)C(CCCCCCCC[C@@H]1c2ccc(O)cc2SC[C@]1(C)c1ccc(O)cc1)CCCC(F)(F)C(F)(F)F (some centres undefined) here?
Answer: The RBA was 7%.

Question: And the inhibition in vivo at 10 mg/kg [5]?
Answer: The inhibition in vivo at 10 mg/kg was 52%.

Question: What about the Activity [6] of the same compound?
Answer: The Activity was -1%.

Question: What about the inhibition in vivo at 10 mg/kg [3] of the same compound?
Answer: The inhibition in vivo at 10 mg/kg was 40%.

Question: Which results are given for C[C@]1(c2ccc(O)cc2)COc2cc(O)ccc2[C@H]1CCCCCCCCC[S+]([O-])CCCC(F)(F)C(F)(F)F (some centres undefined)?
Answer: RBA [1]: 96%; inhibition in vivo at 10 mg/kg [5]: 94%; inhibition in vivo at 50 mg/kg [7]: 88%; Activity [6]: 1%; inhibition in vivo at 10 mg/kg [3]: 66%

Question: Which results are given for C[C@]1(c2ccc(O)cc2)COc2cc(O)ccc2[C@H]1CCCCCCCCCNS(=O)(=O)NCCCC(F)(F)C(F)(F)F?
Answer: RBA [1]: 42%; inhibition in vivo at 10 mg/kg [5]: 100%; inhibition in vivo at 50 mg/kg [7]: 69%; Activity [6]: 1%; inhibition in vivo at 10 mg/kg [3]: 41%

Question: Which results are given for C[C@]1(c2ccc(O)cc2)CSc2cc(O)ccc2[C@H]1CCCCCCCCC(CCCCC(F)(F)C(F)(F)F)C(=O)O (some centres undefined)?
Answer: RBA [1]: 1.3%; inhibition in vivo at 30 mg/kg [2]: 97%; inhibition in vivo at 10 mg/kg [3]: 87%; inhibition in vivo at 3 mg/kg [4]: 69%

Question: What does the source list for C[C@]1(c2ccc(O)cc2)CSc2cc(O)ccc2[C@H]1CCCCCCCCCC(CCCC(F)(F)C(F)(F)F)C(=O)O (some centres undefined)?
Answer: RBA [1]: 0.9%; inhibition in vivo at 10 mg/kg [3]: 81%; inhibition in vivo at 3 mg/kg [4]: 45%

Question: Which RBA [1] does the source give for C[C@]1(c2ccc(O)cc2)CSc2cc(O)ccc2[C@H]1CCCCCCCCCNS(=O)(=O)CCCC(F)(F)C(F)(F)F here?
Answer: The RBA was 52%.

Question: And the inhibition in vivo at 10 mg/kg [5]?
Answer: Its inhibition in vivo at 10 mg/kg is 99%.

Question: And the inhibition in vivo at 50 mg/kg [7]?
Answer: The inhibition in vivo at 50 mg/kg was 73%.

Question: And the Activity [6]?
Answer: The Activity was 3%.

Question: What about the inhibition in vivo at 10 mg/kg [3] of the same compound?
Answer: The inhibition in vivo at 10 mg/kg was 31%.

Question: Which RBA [1] does the source give for C[C@]1(c2ccc(O)cc2)CSc2cc(O)ccc2[C@H]1CCCCCCCCCC(CCC(F)(F)C(F)(F)C(F)(F)C(F)(F)F)C(=O)O (some centres undefined) here?
Answer: Its RBA is 0.3%.

Question: What about the inhibition in vivo at 30 mg/kg [2] of the same compound?
Answer: The inhibition in vivo at 30 mg/kg was 99%.

Question: And the inhibition in vivo at 10 mg/kg [3]?
Answer: The inhibition in vivo at 10 mg/kg was 85%.

Question: What about the inhibition in vivo at 3 mg/kg [4] of the same compound?
Answer: Its inhibition in vivo at 3 mg/kg is 38%.

Question: What does the source list for C[C@]1(c2ccc(O)cc2)CSc2cc(O)ccc2[C@H]1CCCCCCCCCCC(CCCC(F)(F)C(F)(F)F)C(=O)O (some centres undefined)?
Answer: RBA [1]: 0.2%; inhibition in vivo at 10 mg/kg [3]: 62%
